Measurements from paper PMC9653733, “Characterization of a Potent, Selective, and Safe Inhibitor, Ac15(Az8)2, in Reversing Multidrug Resistance Mediated by Breast Cancer Resistance Protein (BCRP/ABCG2)” (International Journal of Molecular Sciences, 2022).
Where “and” joins values, the source holds several entries; their conditions need not be identical. Equal entries are not always repeated.

Columns and labels:
S1M180 cells = assay: Cytotoxicity of anticancer drugs in S1M180 (0.1% DMSO); format: cell-based, human
Procedure: In total, 6500 cells of S1M180 or MCF7-MX100 were incubated with various doses of topotecan or DOX and modulators. The final volume in each well of 96-well plates was 200 µL. The plates were then incubated for 5 days at 37 °C. The CellTiter 96 AQueous Assay (Promega) was used to measure cell proliferation. According to the manufacturer’s instructions, MTS (2 mg/mL) and PMS (0.92 mg/mL) were mixed in a ratio of 20:1. An aliquot (10 μL) of the freshly prepared MTS/PMS mixture was added into each well, and the plate was incubated for 2 h at 37 °C. Optical absorbance at 490 nm was then recorded with microplate absorbance reader (Bio-Rad). IC50 values were calculated from the dose-response curves of MTS assays (Prism 4.0).

S1 cells = assay: Cytotoxicity of anticancer drugs in parental S1 (0.1% DMSO); format: cell-based, human
BCRP (S1M180 cells) = molecular target: T1, BCRP (S1M180 cells) (Homo sapiens, UniProt Q9UNQ0, R482G); assay: Drug accumulation assay in S1M180; format: cell-based; settings: 20 µM DOX, 1 h; p < 0.001
T1 construct: endogenous in cells; host or cells: S1M180 (human colon carcinoma, mitoxantrone-selected)
T1 sequence (Q9UNQ0 1-655 R482G): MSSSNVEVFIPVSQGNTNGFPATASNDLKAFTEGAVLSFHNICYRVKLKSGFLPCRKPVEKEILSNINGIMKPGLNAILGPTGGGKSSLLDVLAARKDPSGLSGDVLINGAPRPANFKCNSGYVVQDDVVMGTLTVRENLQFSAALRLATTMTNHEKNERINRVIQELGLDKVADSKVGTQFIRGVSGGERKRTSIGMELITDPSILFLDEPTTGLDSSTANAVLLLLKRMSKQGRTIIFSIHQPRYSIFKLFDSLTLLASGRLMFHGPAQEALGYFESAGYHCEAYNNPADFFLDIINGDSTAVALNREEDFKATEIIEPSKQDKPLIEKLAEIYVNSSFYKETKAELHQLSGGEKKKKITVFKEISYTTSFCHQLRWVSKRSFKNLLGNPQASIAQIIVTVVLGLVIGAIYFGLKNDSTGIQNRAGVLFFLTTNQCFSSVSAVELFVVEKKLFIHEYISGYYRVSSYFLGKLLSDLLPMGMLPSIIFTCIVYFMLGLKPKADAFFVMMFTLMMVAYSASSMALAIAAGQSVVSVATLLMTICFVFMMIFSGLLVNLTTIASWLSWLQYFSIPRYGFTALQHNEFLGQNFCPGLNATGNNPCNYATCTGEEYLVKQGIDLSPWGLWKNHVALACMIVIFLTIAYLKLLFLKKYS
Procedure: Figure 2 Effect of Ac15(Az8)2 on intracellular accumulation of BCRP-substrates in S1 and S1M180 cells. Cells were pre-treated with 0.1% DMSO, 100 nM, or 1000 nM Ac15(Az8)2 and then incubated with BCRP substrates. (A) Topotecan accumulation. (B) DOX accumulation. The intracellular level of drug after treatment was normalized to that of S1 cells after incubating with 0.1% DMSO. Student unpaired two-tailed t-test was conducted as indicated (** p < 0.01, *** p < 0.001). (C) To measure DOX efflux, S1M180 cells were pre-incubated with medium containing 20 μM DOX for 1 h at 37 °C. Cells were then washed and further incubated with or without 1 µM of Ac15(Az8)2. At 0, 5, 10, 30, 60, 120, and 180 min, the cells were harvested to measure the intracellular DOX level. (D) To determine intracellular Ac15(Az8)2 concentration, 1 × 10^7 cells were incubated with 1 µM of Ac15(Az8)2 at 37 °C for 2 h. Cells were then washed with ice-cold PBS. To the cell pellet, acetonitrile was added to lyse the cells, and the supernatant was saved for Ac15(Az8)2 determination using UPLC–MS/MS.
Briefly, 1 × 10^6 cells of S1 and S1M180 cells were pre-incubated with 100 nM or 1000 nM Ac15(Az8)2 for 2 h and followed by 50 µM of topotecan or 20 µM of DOX for 1-h incubation. DMSO at 0.1% was used as a negative control. After incubation, the cells were spun down and washed with cold PBS, pH7.4 for 2 times and lysed with 100 μL of lysis buffer (0.75 M HCl, 0.2% Triton-X100 in isopropanol) with vigorous vortex. The lysate was further incubated at 37 °C for 20 min. After incubation, the lysate was spun down, and 100 μL of supernatant was saved and seeded into a black 96-well microtiter plate. The fluorescence level of DOX was determined by a fluorescence microplate reader (BMG Technologies) using excitation and an emission wavelength pair of 460 nm and 610 nm.

BCRP (MCF7-MX100 cells) = settings: concentration reducing IC50 of anticancer drug by half; mean ± S.D.; ref [42]; read-out: EC50 needed for reversing BCRP-mediated topotecan resistance, MCF7-MX100; cited from earlier work
MRP1 (2008/MRP1 cells) = settings: mean ± S.D.; ref [42]; read-out: EC50 needed for reversing MRP1-mediated DOX resistance, 2008/MRP1; cited from earlier work
L929 = settings: normal mouse fibroblast cells; mean ± S.D.; ref [42]; read-out: IC50 towards L929; cited from earlier work

Question: Which IC50 (S1M180 cells; Homo sapiens, S1-M1-80, S1M180 + 0.1% DMSO, mean ± S.D., n = 3, read-out: IC50 of DOX) does the source give for COc1cccc2c1C(=O)c1c(O)c3c(c(O)c1C2=O)C[C@@](O)(C(=O)CO)C[C@@H]3O[C@H]1C[C@H](N)[C@H](O)[C@H](C)O1 [DOX, doxorubicin] here?
Answer: Its IC50 is 13.4 µM.

Question: And the “RF (Relative Fold), DOX” value (S1M180 cells; S1M180 + 0.1% DMSO (reference))?
Answer: The value was 1.0.

Question: What about the IC50 (S1 cells; Homo sapiens, S1 + 0.1% DMSO, mean ± S.D., n = 3, read-out: IC50 of DOX) of the same compound?
Answer: Its IC50 is 0.1 ± 0.02 µM.

Question: And the “RF (Relative Fold), DOX: resistance of S1M180 compared to parental S1” value (S1 cells; S1 + 0.1% DMSO vs S1M180 + 0.1% DMSO)?
Answer: The value was 133.7.

Question: What about the “DOX accumulation in S1M180, fold less than parental S1” value (BCRP (S1M180 cells)) of the same compound?
Answer: The value was ~4.6 fold.

Question: With COc1ccc2c3c([nH]c2c1)[C@H](CC(C)C)N1C(=O)[C@H](CCC(=O)OC(C)(C)C)NC(=O)[C@@H]1C3 [Ko143, reference compound] as the compound, how does the EC50 (BCRP (MCF7-MX100 cells)) read?
Answer: Its EC50 is […].

Question: And the EC50 (MRP1 (2008/MRP1 cells))?
Answer: The EC50 was 1.95 ± 0.354 µM.

Question: What about the IC50 (L929) of the same compound?
Answer: The IC50 was 29 µM and 29.2 µM.
